Measurements from patent US20020045638A1, “Method of treating estrogen receptor positive carcinoma” (priority 2000, published 2002).

Legend:
[1] = test system: MCF-7 human breast cancer cells; assay: Inhibition of growth of MCF-7 breast cancer cells (MTT), with MacSynergy II synergy analysis;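 further: cells treated five or six days with single agents or combinations, growth read by MTT, synergy surface equals observed % inhibition minus Bliss additive prediction, values under 0% signal antagonism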
Experimental: MCF-7 human breast cancer cells were maintained at 37° C. in a humidified atmosphere of 5% CO2 and 95% air in IMEM medium supplemented with 10% fetal bovine serum. […] One day before the experiment, cells were plated in 96-well plates at a cell density of 2,500 cells/well in IMEM medium supplemented with 10% fetal bovine serum. The next day, cells were treated with various concentrations of antiestrogen and rapamycin 42-ester with 3-hydroxy-2-(hydroxymethyl)-2-methylpropionic acid (referred to as CCI-779 in the tables below). Five or six-days later, cell growth was monitored. MTT solution (20 ul) (0.5 mg/ml) was added to each well and cells were incubated for an additional 4 h. The solution was then removed and 150 ul of DMSO added. The intensity of dark blue color corresponding to number of cells was read at 540 nm with an automated plate reader.
Briefly, theoretical additive interactions were calculated from the dose-response curves of each individual drug based on Bliss independence model. The calculated additive surface was then subtracted from the experimental surface to obtain a synergy surface representing % inhibition above the calculated additive value-synergy index. […] Likewise, any peak below the 0% plane is indicative of antagonism.

MCF-7 tumors = assay: Growth of MCF-7 breast carcinoma implanted in nude mice; type: in vivo; conditions: for Tumor size (mean ± standard error): 20 mg/kg ERA-923 PO qd days 1-35
Experimental: In the third standard pharmacological test procedure, mice implanted with MCF-7 tumors were treated with a combination of ERA-923 and CCI-779. […] ERA-923 was dissolved in 1% Tween 80 and 0.9% NaCl Injection USP. Drug was aliquoted into daily doses using 10.0 ml glass bottles and frozen at −20° C. until needed. CCI-779 was made fresh using a 5% ETOH, 4.9% Phosal and 0.1% Tween 80 in Sterile Water. 0.2 ml of each drug was given orally starting the day after tumor implantation. ERA 923 was given daily for the duration of the experiment and CCI-779 was given every other day for the first 10 days. The control vehicles were given on the same regime as the drugs. MCF7 cells were cultured in IMEM containing 5% Fetal Bovine Serum with passages varying from 2-20. After trypsinization tumors were resuspended in IMEM with 2% Serum at a 1:1 ratio with Matrigel. 10 million cells were injected subcutaneously into the mammary tissue of each mouse using a 1.0 ml tuberculin syringe with a 23 3/4 gauge needle. Five to six week old female ovariectomized athymic nu/nu mice (Charles River Labs: Wilmington, Mass.) weighing from 20.0-23.0 g were used. The animals were housed 5 to a cage in a Microisolator Open Rack System (Lab Products: Maywood, N.J.). Each mouse received a 17β-Estradiol pellet (0.72 mg/pellet-60 day release). The pellets were injected with a 10 gauge trochar into the lateral side of the neck between the ear and the shoulder 1-2 weeks prior to tumor injection. Control groups were 15 mice/vehicle whereas the drug groups were 10 mice/drug. Tumors were measured weekly by means of solar calipers (Cole-Parmer Instuments: Vernon Hills, Ill.) and tumor weights were estimated from tumor diameters by the following formula:
Tumor weight (mg)=tumor length (mm)×tumor width (mm)^2/2.
Mice were euthanized 36 days after tumor injection by CO2 inhalation. […] Nude mice bearing MCF-7 tumors were given ERA-923, CCI-779 or the combination of both drugs.

[2] = test system: BG-1 human ovarian cancer cells; assay: Inhibition of growth of BG-1 ovarian cancer cells (MTT), with MacSynergy II synergy analysis; type: cell-based; conditions: for Percent Inhibition: Table G, CCI-779 0 nM
Experimental: In these test procedures, rapamycin 42-ester with 3-hydroxy-2-(hydroxymethyl)-2-methylpropionic acid was used as a representative rapamycin, and 2-(4-hydroxy-phenyl)-3-methyl-1-[4-(2-piperdin-1-yl-ethoxy)-benzyl-1 H-indol-5-ol, raloxifene, and 4-hydroxytamoxifen were used as representative antiestrogens.
One day before the experiment, cells were plated in 96-well plates at a cell density of 2,500 cells/well in IMEM medium supplemented with 10% fetal bovine serum. The next day, cells were treated with various concentrations of antiestrogen and rapamycin 42-ester with 3-hydroxy-2-(hydroxymethyl)-2-methylpropionic acid (referred to as CCI-779 in the tables below). Five or six-days later, cell growth was monitored.

[3] = MCF-7, antiestrogen in combination with CCI-779, MacSynergy II, Bliss independence model
[4] = BG-1, antiestrogen in combination with CCI-779, MacSynergy II, Bliss independence model

Cc1c(-c2ccc(O)cc2)n(Cc2ccc(OCCN3CCCCC3)cc2)c2ccc(O)cc12 [ERA-923]
increase of growth-inhibitory effect as estimated by the IC50 ([1]; ERA-923 in the presence of non-inhibitory concentrations of CCI-779): approximately 10 fold
Antagonsim [1, 3]: 0.0 μM^2%
Synergy [1, 3]: 138.0 μM^2%
Percent Inhibition ([1]; Table A, CCI-779 0 nM, ERA-923 0.25 nM): 9%
Percent Inhibition ([1]; Table A, CCI-779 0 nM, ERA-923 0.5 nM): 7.59%
Percent Inhibition ([1]; Table A, CCI-779 0 nM, ERA-923 1 nM): 37.56%
Percent Inhibition ([1]; Table A, CCI-779 0 nM, ERA-923 2 nM): 54.65%
Percent Inhibition ([1]; Table A, CCI-779 0 nM, ERA-923 3 nM): 59.39%
Percent Inhibition ([1]; Table A, CCI-779 0 nM, ERA-923 4 nM): 60.04%
Percent Inhibition ([1]; Table A, CCI-779 0 nM, ERA-923 5 nM): 61.12%
Percent Inhibition ([1]; Table D, ERA-923 0 nM + ERA-923 0.25 nM): −0.78%
Percent Inhibition ([1]; Table D, ERA-923 0 nM + ERA-923 0.5 nM): 26.09%
Percent Inhibition ([1]; Table D, ERA-923 0 nM + ERA-923 1 nM): 54.91%
Percent Inhibition ([1]; Table D, ERA-923 0 nM + ERA-923 2 nM): 71.82%
Percent Inhibition ([1]; Table D, ERA-923 0 nM + ERA-923 3 nM): 87.65%
Percent Inhibition ([1]; Table D, ERA-923 0 nM + ERA-923 4 nM): 78.72%
Percent Inhibition ([1]; Table D, ERA-923 0 nM + ERA-923 5 nM): 79.25%
Percent Inhibition ([1]; Table D, ERA-923 0.25 nM + ERA-923 0 nM): 6.69%
Percent Inhibition ([1]; Table D, ERA-923 0.25 nM + ERA-923 0.25 nM): 35.93%
Percent Inhibition ([1]; Table D, ERA-923 0.25 nM + ERA-923 0.5 nM): 56.79%
Percent Inhibition ([1]; Table D, ERA-923 0.25 nM + ERA-923 1 nM): 64.27%
Percent Inhibition ([1]; Table D, ERA-923 0.25 nM + ERA-923 2 nM): 76.33%
Percent Inhibition ([1]; Table D, ERA-923 0.25 nM + ERA-923 3 nM): 78.99%
Percent Inhibition ([1]; Table D, ERA-923 0.25 nM + ERA-923 4 nM): 78.39%
Percent Inhibition ([1]; Table D, ERA-923 0.25 nM + ERA-923 5 nM): 79.68%
Percent Inhibition ([1]; Table D, ERA-923 0.5 nM + ERA-923 0 nM): 8.17%
Percent Inhibition ([1]; Table D, ERA-923 0.5 nM + ERA-923 0.25 nM): 53.61%
Percent Inhibition ([1]; Table D, ERA-923 0.5 nM + ERA-923 0.5 nM): 63.08%
Percent Inhibition ([1]; Table D, ERA-923 0.5 nM + ERA-923 1 nM): 68.58%
Percent Inhibition ([1]; Table D, ERA-923 0.5 nM + ERA-923 2 nM): 73.71%
Percent Inhibition ([1]; Table D, ERA-923 0.5 nM + ERA-923 3 nM): 81.21%
Percent Inhibition ([1]; Table D, ERA-923 0.5 nM + ERA-923 4 nM): 79.57%
Percent Inhibition ([1]; Table D, ERA-923 0.5 nM + ERA-923 5 nM): 81.43%
Percent Inhibition ([1]; Table D, ERA-923 1 nM + ERA-923 0 nM): 42.1%
Percent Inhibition ([1]; Table D, ERA-923 1 nM + ERA-923 0.25 nM): 66.83%
Percent Inhibition ([1]; Table D, ERA-923 1 nM + ERA-923 0.5 nM): 75.09%
Percent Inhibition ([1]; Table D, ERA-923 1 nM + ERA-923 1 nM): 74.24%
Percent Inhibition ([1]; Table D, ERA-923 1 nM + ERA-923 2 nM): 74.07%
Percent Inhibition ([1]; Table D, ERA-923 1 nM + ERA-923 3 nM): 76.56%
Percent Inhibition ([1]; Table D, ERA-923 1 nM + ERA-923 4 nM): 80.45%
Percent Inhibition ([1]; Table D, ERA-923 1 nM + ERA-923 5 nM): 82.97%
Percent Inhibition ([1]; Table D, ERA-923 2 nM + ERA-923 0 nM): 67.81%
Percent Inhibition ([1]; Table D, ERA-923 2 nM + ERA-923 0.25 nM): 74.73%
Percent Inhibition ([1]; Table D, ERA-923 2 nM + ERA-923 0.5 nM): 75.08%
Percent Inhibition ([1]; Table D, ERA-923 2 nM + ERA-923 1 nM): 75.36%
Percent Inhibition ([1]; Table D, ERA-923 2 nM + ERA-923 2 nM): 75.03%
Percent Inhibition ([1]; Table D, ERA-923 2 nM + ERA-923 3 nM): 78.5%
Percent Inhibition ([1]; Table D, ERA-923 2 nM + ERA-923 4 nM): 81.23%
Percent Inhibition ([1]; Table D, ERA-923 2 nM + ERA-923 5 nM): 82.02%
Percent Inhibition ([1]; Table D, ERA-923 3 nM + ERA-923 0 nM): 52.23%
Percent Inhibition ([1]; Table D, ERA-923 3 nM + ERA-923 0.25 nM): 75.24%
Percent Inhibition ([1]; Table D, ERA-923 3 nM + ERA-923 0.5 nM): 76.06%
Percent Inhibition ([1]; Table D, ERA-923 3 nM + ERA-923 1 nM): 77.68%
Percent Inhibition ([1]; Table D, ERA-923 3 nM + ERA-923 2 nM): 76.67%
Percent Inhibition ([1]; Table D, ERA-923 3 nM + ERA-923 3 nM): 81.51%
Percent Inhibition ([1]; Table D, ERA-923 3 nM + ERA-923 4 nM): 83.2%
Percent Inhibition ([1]; Table D, ERA-923 3 nM + ERA-923 5 nM): 82.87%
Percent Inhibition ([1]; Table D, ERA-923 4 nM + ERA-923 0 nM): 74.49%
Percent Inhibition ([1]; Table D, ERA-923 4 nM + ERA-923 0.25 nM): 79.39%
Percent Inhibition ([1]; Table D, ERA-923 4 nM + ERA-923 0.5 nM): 80.92%
Percent Inhibition ([1]; Table D, ERA-923 4 nM + ERA-923 1 nM): 77.2%
Percent Inhibition ([1]; Table D, ERA-923 4 nM + ERA-923 2 nM): 78.2%
Percent Inhibition ([1]; Table D, ERA-923 4 nM + ERA-923 3 nM): 79.28%
Percent Inhibition ([1]; Table D, ERA-923 4 nM + ERA-923 4 nM): 83.28%
Percent Inhibition ([1]; Table D, ERA-923 4 nM + ERA-923 5 nM): 85.92%
Tumor size (mean ± standard error) (MCF-7 tumors; day 14 after tumor implantation): 480 ± 91 mg
Tumor size (mean ± standard error) (MCF-7 tumors; day 21 after tumor implantation): 679 ± 127 mg
Tumor size (mean ± standard error) (MCF-7 tumors; day 28 after tumor implantation): 842 ± 163 mg
Tumor size (mean ± standard error) (MCF-7 tumors; day 36 after tumor implantation): 993 ± 197 mg
inhibition of tumor growth (MCF-7 tumors; nude mice bearing MCF-7 tumors, growth inhibition=experimental value−200 (baseline)/control value −200): approximately 35%
Antagonsim [2, 4]: 0.0 μM^2%
Synergy [2, 4]: 25.9 μM^2%
Percent Inhibition ([2]; ERA-923 0.25 nM): 14.72%
Percent Inhibition ([2]; ERA-923 0.5 nM): 24.14%
Percent Inhibition ([2]; ERA-923 1 nM): 48.93%
Percent Inhibition ([2]; ERA-923 2 nM): 57.19%
Percent Inhibition ([2]; ERA-923 3 nM): 72.54%
Percent Inhibition ([2]; ERA-923 4 nM): 80.34%
Percent Inhibition ([2]; ERA-923 5 nM): 75.94%
